Assays:
Lck (h) = Lck (h) (Homo sapiens, UniProt P06239); test: Lck Human STE Kinase Enzymatic Radiometric Assay; assay type: biochemical; conditions: radiometric, [gamma-33P]-ATP, Cdc2 peptide substrate; read-out: Lck IC50, nM Range*
Protocol: (b) Lck Human STE Kinase Enzymatic Radiometric Assay
Lck (h) is incubated with 50 mM Tris pH 7.5, 0.1 mM EGTA, 0.1 mM Na3VO4, 250 uM KVEKIGEGTYGVVYK (Cdc2 peptide), 10 mM MgAcetate and [gamma-33P]-ATP (specific activity and concentration as required). The reaction is initiated by the addition of the Mg/ATP mix. After incubation for 40 minutes at room temperature, the reaction is stopped by the addition of phosphoric acid to a concentration of 0.5%. 10 uL of the reaction is then spotted onto a P30 filtermat and washed four times for 4 minutes in 0.425% phosphoric acid and once in methanol prior to drying and scintillation counting. For more details on the kinase assay procedures see: Gao, Y. et. al.; Biochem J., 451 (2): 313-328, 2013.
In some embodiments the presence of substituents on monocyclic Cy^2 rings or when Cy^2 is a bicyclic ring (unsubstituted or substituted) provides compounds with improved selectivity for inhibition of HPK1 vs Lck (see, for example, Table 3 and Table 4).

[1] = biological target: T1, Recombinant (1-346) HPK1 (h) (Homo sapiens, UniProt Q92918); test: HPK1 Human STE Kinase Enzymatic Radiometric Assay; assay type: biochemical; conditions: [gamma-33P]-ATP, myelin basic protein substrate, read-out: HPK1 IC50 nM Range*
T1 construct: Recombinant (1-346) HPK1 (h) is incubated with 8 mM MOPS pH 7.0
T1 sequence (Q92918 1-346): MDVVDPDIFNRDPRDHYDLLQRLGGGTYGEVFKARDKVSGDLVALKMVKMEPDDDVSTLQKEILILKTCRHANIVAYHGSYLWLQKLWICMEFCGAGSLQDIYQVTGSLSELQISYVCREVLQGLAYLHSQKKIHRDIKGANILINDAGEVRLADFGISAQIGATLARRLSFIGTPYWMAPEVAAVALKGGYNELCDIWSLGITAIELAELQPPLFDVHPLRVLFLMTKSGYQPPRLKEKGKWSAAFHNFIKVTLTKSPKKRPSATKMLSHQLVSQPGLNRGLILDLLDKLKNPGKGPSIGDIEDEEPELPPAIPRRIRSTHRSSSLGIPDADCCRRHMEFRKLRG
Protocol: (a) HPK1 Human STE Kinase Enzymatic Radiometric Assay
A stock solution of 10 mM of test compound is prepared in DMSO. The compound plate was prepared by 3-fold and 9-point serial dilutions. Recombinant (1-346) HPK1 (h) is incubated with 8 mM MOPS pH 7.0, 0.2 mM EDTA, 0.33 mg/mL myelin basic protein, 10 mM MgAcetate and [gamma-33P]-ATP (specific activity and concentration as required). The reaction is initiated by the addition of the Mg/ATP mix. After incubation for 40 minutes at RT, the reaction is stopped by the addition of phosphoric acid to a concentration of 0.5%. 10 uL of the reaction is then spotted onto a P30 filtermat and washed four times for 4 minutes in 0.425% phosphoric acid and once in methanol prior to drying and scintillation counting. For more details of kinase assay protocols, see: Gao, Y. et. al.; Biochem J. 451 (2): 313-328, 2013.

Chain of Lck (h) (P06239 whole entry): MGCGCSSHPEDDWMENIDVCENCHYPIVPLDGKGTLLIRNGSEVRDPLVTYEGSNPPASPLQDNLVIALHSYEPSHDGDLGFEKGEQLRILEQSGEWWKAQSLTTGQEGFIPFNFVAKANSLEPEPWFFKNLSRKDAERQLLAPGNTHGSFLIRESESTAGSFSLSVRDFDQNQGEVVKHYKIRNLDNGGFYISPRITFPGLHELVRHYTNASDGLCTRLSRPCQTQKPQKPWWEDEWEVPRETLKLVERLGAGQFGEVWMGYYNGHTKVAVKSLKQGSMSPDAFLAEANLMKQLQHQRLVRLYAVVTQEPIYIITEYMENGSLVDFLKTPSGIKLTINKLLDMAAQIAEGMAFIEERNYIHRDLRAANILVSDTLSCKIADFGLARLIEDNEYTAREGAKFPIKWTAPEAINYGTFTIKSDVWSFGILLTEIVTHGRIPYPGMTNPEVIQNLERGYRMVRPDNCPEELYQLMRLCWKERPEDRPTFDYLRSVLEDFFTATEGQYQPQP

| IC50 (Lck (h)) [nM] | IC50 [1] [nM] | SMILES |
| --- | --- | --- |
| 11 to 20 | 0.1 to 5 | CC(C)[C@@H]1CN(c2ccc(-c3cnc(N)c(-c4ccc5c(c4)CCNC5=O)n3)cc2)CCO1 [Example I-7, (R)-6-(3-amino-6-(4-(2-isopropylmorpholino)phenyl)pyrazin-2-yl)-3,4-dihydroisoquinolin-1(2H)-one] |
| 21 to 200 | 0.1 to 5 | Cc1nc2cc(-c3nc(-c4ccc(C5CCOCC5)c(CN(C)C)c4)cnc3N)ccc2c(=O)[nH]1 [II-3, 7-(3-amino-6-(3-((dimethylamino)methyl)-4-(tetrahydro-2H-pyran-4-yl)phenyl)pyrazin-2-yl)-2-methylquinazolin-4(3H)-one] |
| 21 to 200 | 0.1 to 5 | CC(C)[C@@H]1CN(c2ccc(-c3cnc(N)c(-c4cc5c(cc4F)C(=O)NCC5)n3)c(F)c2F)CCO1 [Example I-31, (R)-6-(3-amino-6-(2,3-difluoro-4-(2-isopropylmorpholino)phenyl)pyrazin-2-yl)-7-fluoro-3,4-dihydroisoquinolin-1(2H)-one] |
| 11 to 20 | 0.1 to 5 | CN(C)C1CCN(c2ccc(-c3cnc(N)c(-c4ccc5c(c4)CCNC5=O)n3)c(F)c2F)C1 (centres unmarked) [Example I-21, 6-(3-amino-6-(4-(3-(dimethylamino)pyrrolidin-1-yl)-2,3-difluorophenyl)pyrazin-2-yl)-3,4-dihydroisoquinolin-1(2H)-one] |
| 21 to 200 | 0.1 to 5 | CC(C)[C@H]1CN(c2ccc(-c3cnc(N)c(-c4ccc5c(c4)CCNC5=O)n3)c(F)c2)CCN1C [Example I-41, (S)-6-(3-amino-6-(2-fluoro-4-(3-isopropyl-4-methylpiperazin-1-yl)phenyl)pyrazin-2-yl)-3,4-dihydroisoquinolin-1(2H)-one] |
| 11 to 20 | 0.1 to 5 | CC(C)N1CCN(c2ccc(-c3cnc(N)c(-c4cc5c(cc4F)C(=O)NCC5)n3)cc2)CC1 [Example I-44, 6-(3-amino-6-(4-(4-isopropylpiperazin-1-yl)phenyl)pyrazin-2-yl)-7-fluoro-3,4-dihydroisoquinolin-1(2H)-one] |
| 11 to 20 | 0.1 to 5 | CC(C)N1C[C@@H]2C[C@]2(c2ccc(-c3cnc(N)c(-c4cc5c(cc4F)C(=O)NCC5)n3)cc2)C1 [Example I-48, 6-(3-amino-6-(4-((1S,5R)-3-isopropyl-3-azabicyclo[3.1.0]hexan-1-yl)phenyl)pyrazin-2-yl)-7-fluoro-3,4-dihydroisoquinolin-1(2H)-one] |
| 21 to 200 | 0.1 to 5 | CC(C)[C@@H]1CN(c2ccc(-c3cnc(N)c(-c4ccc5c(c4)CCNC5=O)n3)c(F)c2F)CCO1 [Example I-15, (R)-6-(3-amino-6-(2,3-difluoro-4-(2-isopropylmorpholino)phenyl)pyrazin-2-yl)-3,4-dihydroisoquinolin-1(2H)-one] |
| 11 to 20 | 0.1 to 5 | CN(C)C1CCN(c2ccc(-c3cnc(N)c(-c4ccc5c(c4)CCNC5=O)n3)c(F)c2)C1 (centres unmarked) [Example I-20, 6-(3-amino-6-(4-(3-(dimethylamino)pyrrolidin-1-yl)-2-fluorophenyl)pyrazin-2-yl)-3,4-dihydroisoquinolin-1(2H)-one] |
| 11 to 20 | 0.1 to 5 | CC(C)[C@@H]1CN(c2ccc(-c3cnc(N)c(-c4ccc5c(c4)CCNC5=O)n3)c(F)c2)CCN1C [Example I-39, (R)-6-(3-amino-6-(2-fluoro-4-(3-isopropyl-4-methylpiperazin-1-yl)phenyl)pyrazin-2-yl)-3,4-dihydroisoquinolin-1(2H)-one] |
| 6 to 10 | 0.1 to 5 | CN1CCN(c2ccc(-c3cnc(N)c(-c4ccc5c(c4)CCNC5=O)n3)cc2F)CC1 [Example I-4, 6-(3-amino-6-(3-fluoro-4-(4-methylpiperazin-1-yl)phenyl)pyrazin-2-yl)-3,4-dihydroisoquinolin-1(2H)-one] |
| 21 to 200 | 0.1 to 5 | CC(C)[C@H]1CN(c2ccc(-c3cnc(N)c(-c4cc5c(cc4F)C(=O)NCC5)n3)c(F)c2F)CCO1 [Example I-32, (S)-6-(3-amino-6-(2,3-difluoro-4-(2-isopropylmorpholino)phenyl)pyrazin-2-yl)-7-fluoro-3,4-dihydroisoquinolin-1(2H)-one] |
| 21 to 200 | 6 to 10 | CC(C)C1CCCN(c2ccc(-c3cnc(N)c(-c4ccc5c(c4)CCNC5=O)n3)c(F)c2)C1 (centres unmarked) [Example I-25, 6-(3-amino-6-(2-fluoro-4-(3-isopropylpiperidin-1-yl)phenyl)pyrazin-2-yl)-3,4-dihydroisoquinolin-1(2H)-one] |
| 6 to 10 | 0.1 to 5 | CC(C)[C@@H]1CN(c2ccc(-c3cnc(N)c(-c4cc5c(cc4F)C(=O)NCC5)n3)cc2)CCO1 [Example I-27, (R)-6-(3-amino-6-(4-(2-isopropylmorpholino)phenyl)pyrazin-2-yl)-7-fluoro-3,4-dihydroisoquinolin-1(2H)-one] |
| 21 to 200 | 0.1 to 5 | CC(C)[C@H]1CN(c2ccc(-c3cnc(N)c(-c4cc5c(cc4F)C(=O)NCC5)n3)c(F)c2)CCO1 [Example I-30, (S)-6-(3-amino-6-(2-fluoro-4-(2-isopropylmorpholino)phenyl)pyrazin-2-yl)-7-fluoro-3,4-dihydroisoquinolin-1(2H)-one] |
| 21 to 200 | 0.1 to 5 | CC(C)[C@H]1CN(c2ccc(-c3cnc(N)c(-c4ccc5c(c4)CCNC5=O)n3)c(F)c2F)CCO1 [Example I-16, (S)-6-(3-amino-6-(2,3-difluoro-4-(2-isopropylmorpholino)phenyl)pyrazin-2-yl)-3,4-dihydroisoquinolin-1(2H)-one] |

Reference: patent US20240317723A1, “SUBSTITUTED AMINO AZA-HETEROARYL COMPOUNDS AS INHIBITORS OF THE HAEMATOPOIETIC PROGENITOR KINASE 1 (HPK1)” (priority 2021, published 2024)
